Reference: US20190119348A1, “PARATHYROID HORMONE RECEPTOR 1 ANTAGONIST AND INVERSE AGONIST POLYPEPTIDES AND METHODS OF THEIR USE” (The General Hospital Corporation, priority 2016, published 2019)
Where a SMILES comes first, the peptide text is derived from it. [ ]: non-standard residue; d: D form. Nle = CCCC[C@H](N)C(=O)O

Key:
human PTHR1-T410P = biological target: T1, human PTHR1-T410P (Homo sapiens, UniProt Q03431, T410P); experiment: Inverse agonism on basal cAMP signaling in GTP-4 cells; format: cell-based; details: GTP-4 cells (HEK293/GloSensor)
T1 construct: expressed in transfected cells; host or cells: GTP-4 (HEK-293 stably expressing GloSensor and PTHR1-T410P)
T1 sequence (Q03431 27-593 T410P): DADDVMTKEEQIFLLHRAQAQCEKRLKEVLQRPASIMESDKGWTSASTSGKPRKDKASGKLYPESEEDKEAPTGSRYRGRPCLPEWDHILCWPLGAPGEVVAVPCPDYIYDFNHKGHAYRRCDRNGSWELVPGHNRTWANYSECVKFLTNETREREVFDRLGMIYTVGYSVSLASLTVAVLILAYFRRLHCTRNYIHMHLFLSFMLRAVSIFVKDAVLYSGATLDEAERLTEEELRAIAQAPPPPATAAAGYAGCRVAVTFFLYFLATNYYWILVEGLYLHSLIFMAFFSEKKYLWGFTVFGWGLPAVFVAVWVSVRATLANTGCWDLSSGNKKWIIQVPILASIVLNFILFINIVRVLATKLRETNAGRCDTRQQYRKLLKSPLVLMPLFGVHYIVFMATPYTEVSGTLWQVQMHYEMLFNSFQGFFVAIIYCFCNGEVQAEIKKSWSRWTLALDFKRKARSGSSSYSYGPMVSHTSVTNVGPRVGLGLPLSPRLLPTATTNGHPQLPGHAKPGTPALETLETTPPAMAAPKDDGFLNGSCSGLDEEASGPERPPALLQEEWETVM
Protocol: cAMP signaling was assessed in the HEK293-derived or SaOS2-derived cell lines stably expressing the luciferase-based GloSensor™ cAMP reporter (Hattersley et al., Paper presented at: Novel Signaling Mechanisms and Bone Cell Biology 2014; Binkowski et al., Methods in molecular biology. 756:263-271). HEK-293 cells were further transfected to stably express the hPTHR1, hPTHR1-H223R, or hPTHR1-T410P. The cells were seeded into 96-well white plates and were assayed 24 to 48 hours post-confluency. Assays were performed at room temperature in CO2-independent culture media (Life Technologies, Corp., Carlsbad, Calif.) containing 0.1% BSA (CIDB). The cells were pre-loaded with luciferin (0.5 mM in CIDB) for 15 minutes, then PTH peptides were added at varying concentrations. cAMP-dependent luminescence was measured at two-minute intervals using a PerkinElmer Envision plate reader. The time at which maximum luminescence (cps) observed with agonist alone, typically at 10-20 minutes after agonist addition, was used to obtain data from wells containing antagonist with or without agonist, to thus generate antagonist ligand dose-response curves. The resulting cps values were then plotted against ligand concentration using GraphPad Prism 7.0 software and a four-parameter logistics curve fitting equation, which yielded parameters of inhibitory potency (pIC50).
These experiments were performed in HEK-293 cells stably transfected to express the GloSensor™ cAMP reporter along with a constitutively active mutant human PTHR1. The HEK-293 cells stably expressing GloSensor™ cAMP reporter along with a constitutively active mutant human PTHR1-H223R are GHR-10 cells. The HEK-293 cells stably expressing GloSensor™ cAMP reporter along with a constitutively active mutant human PTHR1-T410P are GTP-4 cells. […] Effects on basal cAMP signaling over time were assessed during periods of direct ligand addition (FIGS. 15A-15F). The measurements were performed by recording GloSensor™ luminescence as counts per second (cps) using a PerkinElmer Envision plate reader. […]

wild-type PTHR = biological target: T2, wild-type PTHR (Mus musculus, UniProt P41593); experiment: Mouse model of hypercalcemia of malignancy (co-injection with PTHrP(1-36)), blood Ca2+; format: in vivo; details: 10-week old female CD1 mice; i.v. co-injection with PTHrP(1-36)-1880 10 nmol/kg; peptide 500 nmol/kg
T2 construct: Wild-type mice were injected with a PTH agonist analog; from tissue; host or cells: whole animal, wild-type mice (C57BL/6J per methods)
T2 sequence (P41593 27-591): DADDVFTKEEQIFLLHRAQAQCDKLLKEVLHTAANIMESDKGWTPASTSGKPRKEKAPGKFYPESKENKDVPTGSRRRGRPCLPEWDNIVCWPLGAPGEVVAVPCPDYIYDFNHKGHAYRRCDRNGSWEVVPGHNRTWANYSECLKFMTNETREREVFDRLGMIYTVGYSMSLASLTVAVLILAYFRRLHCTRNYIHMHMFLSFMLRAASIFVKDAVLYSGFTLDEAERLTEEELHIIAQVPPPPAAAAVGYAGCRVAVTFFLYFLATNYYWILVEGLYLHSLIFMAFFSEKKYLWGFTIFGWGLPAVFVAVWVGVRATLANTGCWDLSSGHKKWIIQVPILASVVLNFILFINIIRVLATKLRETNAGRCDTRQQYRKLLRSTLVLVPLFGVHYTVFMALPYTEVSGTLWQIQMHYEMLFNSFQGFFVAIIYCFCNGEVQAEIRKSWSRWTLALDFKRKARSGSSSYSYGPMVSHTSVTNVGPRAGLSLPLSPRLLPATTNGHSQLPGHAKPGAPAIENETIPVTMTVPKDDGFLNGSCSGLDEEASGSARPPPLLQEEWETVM
Protocol: (§1) Mice were injected IV via the tail vein or subcutaneously with ligands in vehicle (0.05% Tween80; 10 mM citrate; 150 mM NaCl; pH 5.0) to give the intended final ligand dose (e.g. 50 nmol/kg body weight). At times immediately before (t=0) and after injection, tail vein blood was collected and analyzed for blood ionized calcium (Ca^2+) measured with a RAPIDLAB 348 analyzer (SIEMENS Healthcare Diagnostic, United Kingdom).
To study antagonism at the wild-type PTHR under conditions of excess PTHrP, as occurs in humans with hypercalcemia of malignancy, we co-injected wild-type mice with PTHrP(1-36) and a test antagonist and measured effects on blood Ca^2+ levels. The results are illustrated in FIG. 13.

PTHR1 = biological target: T3, PTHR1 (Mus musculus, UniProt P41593); experiment: Blood Ca2+ in wild-type mice after co-injection with PTH(1-34); format: in vivo; design: from tissue; host or cells: whole animal, wild-type mice (C57BL/6J per methods); details: intravenous co-injection with PTH(1-34)
T3 sequence (P41593 27-591): T2 sequence (P41593 27-591)
Description: Wilde-type, ca. 10-week old male C57BL/6J mice were purchased from the Charles River Laboratories (Wilmington, Mass., USA). The origin and method of breeding of Col1-H223R “Jansen's” transgenic mice is described by Calvi et al. (J. Clin. Invest., 107:277-286, 2001). Mice were maintained in facilities operated by the Center for Comparative Research of the Massachusetts General Hospital, and acclimated in the facilities for seven days prior to being used for study. All experimental procedures were approved by the MGH Institutional Animal Care and Use Committee (IACUC). In each study, animals were assigned randomly to treatment groups. Where possible, power calculations established that the number of animals used per study group was sufficient to detect statistically significant differences in intended primary experimental outcomes (i.e., changes in serum Ca and Pi).
as §1

Row | SMILES | inverse agonist properties on constitutively active PTHR1-T410P (basal cAMP) (human PTHR1-T410P) | effect on blood Ca^2+ levels (FIG. 13) (wild-type PTHR) | effect on calcemic response to PTH(1-34) (FIG. 11) (PTHR1)
1 | CCCC[C@H](NC(=O)[C@@H](N)CC(C)C)C(=O)N[C@@H](Cc1c[nH]cn1)C(=O)N[C@@H](CCC(N)=O)C(=O)N[C@@H](CCCNC(=N)N)C(=O)N[C@H](Cc1c[nH]c2ccccc12)C(=O)N[C@@H](CCCCN)C(=O)N[C@@H](Cc1c[nH]c2ccccc12)C(=O)N[C@H](C(=O)N[C@@H](CCC(N)=O)C(=O)N[C@@H](CC(=O)O)C(=O)N[C@@H](C)C(=O)N[C@@H](CCCNC(=N)N)C(=O)N[C@@H](CCCNC(=N)N)C(=O)N[C@@H](CCCNC(=N)N)C(=O)N[C@@H](C)C(=O)N[C@@H](Cc1c[nH]c2ccccc12)C(=O)N[C@@H](CC(C)C)C(=O)N[C@@H](Cc1c[nH]cn1)C(=O)N[C@@H](CCCCN)C(=O)N[C@@H](CC(C)C)C(=O)N[C@H](C(=O)N[C@@H](C)C(=O)N[C@@H](CCC(=O)O)C(=O)N[C@H](C(=O)N[C@@H](Cc1c[nH]cn1)C(=O)N[C@H](C(=O)N[C@@H](C)C(=O)N[C@@H](CCC(=O)O)C(=O)N[C@H](C(N)=O)[C@@H](C)CC)[C@@H](C)O)[C@@H](C)CC)[C@@H](C)CC)[C@@H](C)CC [compound 1992, Nle8, dW12, W23-LA-PTH(7-36)-1992] (H-L[Nle]HQR[dW]KWIQDARRRAWLHKLIAEIHTAEI-NH2; N-terminus assumed) | inverse agonist response | – | –
2 | CC[C@H](C)[C@H](NC(=O)[C@H](CCC(=O)O)NC(=O)[C@H](C)NC(=O)[C@@H](NC(=O)[C@H](Cc1c[nH]cn1)NC(=O)[C@@H](NC(=O)[C@H](CCC(=O)O)NC(=O)[C@H](C)NC(=O)[C@@H](NC(=O)[C@H](CC(C)C)NC(=O)[C@H](CCCCN)NC(=O)[C@H](Cc1c[nH]cn1)NC(=O)[C@H](CC(C)C)NC(=O)[C@H](Cc1c[nH]c2ccccc12)NC(=O)[C@H](C)NC(=O)[C@H](CCCNC(=N)N)NC(=O)[C@H](CCCNC(=N)N)NC(=O)[C@H](CCCNC(=N)N)NC(=O)[C@H](C)NC(=O)[C@H](CC(=O)O)NC(=O)[C@H](CCC(N)=O)NC(=O)[C@@H](NC(=O)[C@H](Cc1c[nH]c2ccccc12)NC(=O)[C@H](CCCCN)NC(=O)[C@@H](Cc1c[nH]c2ccccc12)NC(=O)[C@H](CCCNC(=N)N)NC(=O)[C@H](CCC(N)=O)NC(=O)[C@H](Cc1c[nH]cn1)NC(=O)[C@H](CCSC)NC(=O)[C@@H](N)CC(C)C)[C@@H](C)CC)[C@@H](C)CC)[C@@H](C)CC)[C@@H](C)O)C(N)=O [compound 1990, dW12, W23-LA-PTH(7-36)-1990] (H-LMHQR[dW]KWIQDARRRAWLHKLIAEIHTAEI-NH2; N-terminus assumed) | inverse agonist response | – | –
3 | CC[C@H](C)[C@H](N)C(=O)N[C@@H](CCC(N)=O)C(=O)N[C@@H](CC(C)C)C(=O)N[C@@H](CCSC)C(=O)N[C@@H](Cc1c[nH]cn1)C(=O)N[C@@H](CCC(N)=O)C(=O)N[C@@H](CCCNC(=N)N)C(=O)N[C@H](Cc1c[nH]c2ccccc12)C(=O)N[C@@H](CCCCN)C(=O)N[C@@H](Cc1c[nH]c2ccccc12)C(=O)N[C@H](C(=O)N[C@@H](CCC(N)=O)C(=O)N[C@@H](CC(=O)O)C(=O)N[C@@H](C)C(=O)N[C@@H](CCCNC(=N)N)C(=O)N[C@@H](CCCNC(=N)N)C(=O)N[C@@H](CCCNC(=N)N)C(=O)N[C@@H](C)C(=O)N[C@@H](Cc1c[nH]c2ccccc12)C(=O)N[C@@H](CC(C)C)C(=O)N[C@@H](Cc1c[nH]cn1)C(=O)N[C@@H](CCCCN)C(=O)N[C@@H](CC(C)C)C(=O)N[C@H](C(=O)N[C@@H](C)C(=O)N[C@@H](CCC(=O)O)C(=O)N[C@H](C(=O)N[C@@H](Cc1c[nH]cn1)C(=O)N[C@H](C(=O)N[C@@H](C)C(=O)N[C@@H](CCC(=O)O)C(=O)N[C@H](C(N)=O)[C@@H](C)CC)[C@@H](C)O)[C@@H](C)CC)[C@@H](C)CC)[C@@H](C)CC [compound 1949, dW12, W23-LA-PTH(5-36)] (H-IQLMHQR[dW]KWIQDARRRAWLHKLIAEIHTAEI-NH2; N-terminus assumed) | exhibited inverse agonist properties | significant reduction of blood Ca^2+ levels | inhibited the capacity of the injected PTH(1-34) agonist to induce a calcemic response
